# Measurements as given in patent US7786152B2, “Compound” (priority 2002, dated 2010).
# Biological target: T1, Human 11βHSD1 (Homo sapiens, UniProt P28845)
# T1 construct: the enzyme source, native hepatic enzyme compared to recombinant enzyme; tissue XenoTech H0610/Lot 0210078; host or cells: human hepatic microsomes
# Experiment: 11β HSD1 cortisol radioimmunoassay (RIA) with human hepatic microsomes
# Assay type: biochemical
# Details: read-out: % inhibition of Human 11βHSD1 @ 10 μM
# Experimental: Biological Assay Development Using Human 11β-Hydroxysteroid Dehydrogenase Type 1. Standard Operating Procedure for the 11β-Hydroxysteroid Dehydrogenase Type 1 Cortisol Radioimmunoassay. 11β HSD1 Cortisol RIA
# Enzyme assay buffer: 30 mM Tris-HCL, pH 7.2 containing 1 mM EDTA
# Antibody binding buffer: 50 mM Tris-HCL, pH 8, containing 0.1 M NaCl and 0.1% gelatin
# Dilute into assay buffer 1 in 25. Also dilute neat DMSO 1 in 25 into assay buffer for controls.
# Dilute this 1 in 50 into assay buffer.
# Prepare NADPH as a 1.8 mg/ml solution in assay buffer.
# Mix these 3 solutions 1:1:1 to make a solution of sufficient volume for 25 μl additions to each sample. Add 0.5 μCi tritiated cortisone per 25 μl and mix the solution well.
# Microsome preparation: Dilute stock 20 mg/ml solution 1 in 100 with assay buffer.
# Dextran coated charcoal preparation: Make a 20 mg/ml solution in antibody binding buffer and chill on ice.
# Enzyme assay: To a u-bottom polypropylene 96 well plate add:
# 25 μl compound dilution or diluted DMSO to controls, NSB's and blanks
# 10 μl 1 mM GA in DMSO (enzyme stop solution) to blanks
# 25 μl substrate mixture to all samples
# 50 μl diluted microsomes to all samples
# Incubate plate for 30 min at 37° C. shaking
# Add 10 μl enzyme stop solution to all wells except the blanks
# Add 100 μl antibody solution to all wells except the NSB's, add antibody binding buffer to these wells
# Incubate at 37° C. for 1 h
# Chill plate on ice for 15 min
# Add 50 μl/well charcoal solution and mix with an 8-channel pipette (4-5 aspirations)
# Centrifuge at 4° C., 2000×g for 15 min
# Transfer 100 μl supernatant into an Optiplate, also add 25 μl substrate mixture to 2 empty wells to indicate counting efficiency
# Add 200 μl Microscint-40 to all wells and count on a Topcount
# The 11β HSD1 enzyme assay was carried out following the standard operating procedure described above in u-bottom polypropylene 96 well plates or 1.5 ml Eppendorf tubes as indicated for each experiment. Subsequent to stopping the enzyme reaction, 100 μl antibody prepared in buffer 3 unless otherwise indicated was added to test samples and 100 μl buffer 3 was added to the NSB samples. The samples were incubated for 1 hour at 37° C. and the chilled on ice for 15 mins. Dextran coated charcoal (50 μl/sample) prepared to the indicated concentration in buffer 3 was added and the samples were mixed (vortex for tubes and aspiration 5 times with an 8-channel pipette for 96 well plates) and chilled for a further 10 min. The samples were centrifuged at 2000×g for 15 min at 4° C. to pellet the charcoal. Aliquots of the supernatant (100 μl) were transferred to an Optiplate and counted on the Topcount in 150-200 μl Microscint 40. In some experiments, aliquots of supernatant were transferred to scintillation vials and counted on the Tricarb LSC in 5 ml Ultima Gold scintillant.
# Substrate saturation was examined. The enzyme assay was carried out exactly described in the methods section, in Buffer 3 with 10 μg/well microsomal protein and with [cold cortisone] as indicated. [3H]-cortisone was 0.5 μCi/sample throughout. The reaction was stopped after 30 min by the addition of 10 μl stop solution. The RIA was carried out exactly as indicated in the methods section.
# It is reported that DMSO can both increase and reduce microsomal enzyme activity, depending on the concentration, presumably due to effects on the microsomal membranes.
# T1 sequence (P28845 whole entry): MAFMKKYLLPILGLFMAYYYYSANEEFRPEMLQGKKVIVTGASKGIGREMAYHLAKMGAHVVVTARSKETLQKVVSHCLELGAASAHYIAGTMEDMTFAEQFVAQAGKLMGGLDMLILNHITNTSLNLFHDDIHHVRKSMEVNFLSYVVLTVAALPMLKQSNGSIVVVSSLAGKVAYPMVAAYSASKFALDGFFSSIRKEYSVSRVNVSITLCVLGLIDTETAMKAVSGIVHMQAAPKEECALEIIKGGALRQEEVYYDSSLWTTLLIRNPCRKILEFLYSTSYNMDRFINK
row,Compound,inhibition at 10 µM [%]
1,Cc1nc2cc(C)c(N(S(=O)(=O)c3cccc(Cl)c3C)S(=O)(=O)c3cccc(Cl)c3C)cc2s1 [compound 997],51
2,CCCc1ccc(S(=O)(=O)Nc2ccc3sc(C)nc3c2Cl)cc1 [compound 994],83
3,COc1ccc2nc(C)sc2c1NS(=O)(=O)c1cccc(Cl)c1C [compound 989],45
4,CCOC(=O)c1cc2cc(NS(=O)(=O)c3cccc(Cl)c3C)ccc2[nH]1 [compound 986],65
5,Cc1c(Cl)cccc1S(=O)(=O)Nc1ccc2c(c1)nc(C)n2C [compound 976],110
6,CC(=O)N1CCc2cc(NS(=O)(=O)c3cccc(Cl)c3C)ccc21 [compound 984],73
7,Cc1nc2cc(CN(Cc3ccc4sc(C)nc4c3)S(=O)(=O)c3cccc(Cl)c3C)ccc2s1 [compound 1030],61
8,Cc1nc2cc(C)c(NS(=O)(=O)c3cc(Cl)ccc3Cl)cc2s1 [compound 999],55
9,Cc1nc2ccc(C)c(NS(=O)(=O)c3cccc(Cl)c3C)c2s1 [compound 1021],54
10,Cc1nc2cc(CNS(=O)(=O)c3cccc(Cl)c3C)ccc2s1 [compound 1029],78
11,Cc1[nH]c2ccc(NS(=O)(=O)c3cccc(Cl)c3C)cc2c1C [compound 1018],66
12,Cc1nc2c(Cl)c(N(S(=O)(=O)c3cccc(Cl)c3C)S(=O)(=O)c3cccc(C)c3Cl)ccc2s1 [compound 991],51
13,CCCc1ccc(S(=O)(=O)N(c2ccc3sc(C)nc3c2Cl)S(=O)(=O)c2ccc(CCC)cc2)cc1 [compound 995],68
14,Cc1nc2cc(NS(=O)(=O)c3cccc(Cl)c3C)ccc2[nH]1 [compound 985],61
15,Cc1nc2c(Cl)c(NS(=O)(=O)c3cccc(Cl)c3C)ccc2s1 [compound 992],61
16,Cc1c(Cl)cccc1S(=O)(=O)Nc1ccc2[nH]ccc2c1 [compound 981],40
17,Cc1nc2c(NS(=O)(=O)c3cccc(Cl)c3C)c(C)ccc2s1 [compound 996],63
18,Cc1[nH]c2ccc(NS(=O)(=O)c3cc(Cl)ccc3Cl)cc2c1C [compound 1019],61
19,CCCc1ccc(S(=O)(=O)Nc2ccc3[nH]c(C)c(C)c3c2)cc1 [compound 1020],64
20,CCOC(=O)Cn1c(C)nc2cc(NS(=O)(=O)c3cccc(Cl)c3C)ccc21 [compound 978],60
21,CCOC(=O)Cn1c(C)nc2ccc(NS(=O)(=O)c3cccc(Cl)c3C)cc21 [compound 977],61
22,Cc1c(Cl)cccc1S(=O)(=O)Nc1ccc2cc[nH]c2c1 [compound 982],53
23,Cc1nc2cc(C)c(NS(=O)(=O)c3cccc(Cl)c3C)cc2s1 [compound 998],58
24,Cc1c(Cl)cccc1S(=O)(=O)Nc1ccc2nc(C)n(C)c2c1 [compound 975],45
25,Cc1c(Cl)cccc1S(=O)(=O)N(C)c1ccc2c(c1)sc(=O)n2C [compound 831],28
26,Cc1nc2c(Cl)c(NS(=O)(=O)c3cccc(Cl)c3C)c(Cl)cc2s1 [compound 1017],60
27,CCN1CCc2cc(NS(=O)(=O)c3cccc(Cl)c3C)ccc21 [compound 987],62
